Source: article PMC4051630, “A Comparison of Protein Kinases Inhibitor Screening Methods Using Both Enzymatic Activity and Binding Affinity Determination” (PLoS ONE, 2014)

How the values were obtained:
Experiment in all cases: Differential Scanning Fluorimetry (DSF) Tm shift
Assay type in all cases: binding
PAK4 Catalytic Domain = target: T1, PAK4 Catalytic Domain (Homo sapiens, UniProt O96013); conditions: 2 µM protein, 10 µM inhibitor, average of 3 experiments, each in duplicate
T1 construct: For all of them, we expressed and purified the catalytic domain separately; His-tag; made in house; host or cells: Escherichia coli
T1 sequence (O96013 321-572 limits assumed): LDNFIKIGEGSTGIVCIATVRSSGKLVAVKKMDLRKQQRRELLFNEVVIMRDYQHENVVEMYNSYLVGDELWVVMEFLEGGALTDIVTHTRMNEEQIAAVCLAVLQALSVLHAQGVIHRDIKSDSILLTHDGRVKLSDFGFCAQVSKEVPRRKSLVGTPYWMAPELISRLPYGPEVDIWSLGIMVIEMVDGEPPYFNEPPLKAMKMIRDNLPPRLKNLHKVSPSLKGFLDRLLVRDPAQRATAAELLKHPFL

FAK2 Catalytic Domain = target: T2, FAK2 Catalytic Domain (Homo sapiens, UniProt Q14289); conditions: 2 µM protein, 10 µM inhibitor, average of 3 experiments, each in duplicate
T2 construct: For all of them, we expressed and purified the catalytic domain separately; His-tag; made in house; host or cells: Escherichia coli
T2 sequence (Q14289 425-683 limits assumed): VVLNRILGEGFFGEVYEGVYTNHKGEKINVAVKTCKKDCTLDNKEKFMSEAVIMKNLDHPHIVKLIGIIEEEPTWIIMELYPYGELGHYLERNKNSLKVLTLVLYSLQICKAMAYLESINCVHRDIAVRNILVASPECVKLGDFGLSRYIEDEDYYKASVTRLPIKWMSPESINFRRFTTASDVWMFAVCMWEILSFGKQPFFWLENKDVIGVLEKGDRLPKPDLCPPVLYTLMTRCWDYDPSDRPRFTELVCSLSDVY

SRC Catalytic Domain = SRC Catalytic Domain (Homo sapiens, UniProt P12931); parameters: For all of them, we expressed and purified the catalytic domain separately; His-tag; made in house; host or cells: Escherichia coli; conditions: 2 µM protein, 10 µM inhibitor, average of 3 experiments, each in duplicate
Chain of SRC Catalytic Domain (P12931 270-523 limits assumed): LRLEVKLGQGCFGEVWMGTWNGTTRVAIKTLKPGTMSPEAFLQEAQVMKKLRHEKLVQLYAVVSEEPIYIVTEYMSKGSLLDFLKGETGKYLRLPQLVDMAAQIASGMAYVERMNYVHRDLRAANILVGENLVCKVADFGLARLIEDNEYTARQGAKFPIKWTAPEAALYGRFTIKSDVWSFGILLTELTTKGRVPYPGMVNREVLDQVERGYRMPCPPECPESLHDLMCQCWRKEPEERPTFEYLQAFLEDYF

CHK2 Catalytic Domain = target: T3, CHK2 Catalytic Domain (Homo sapiens, UniProt O96017); conditions: 2 µM protein, 10 µM inhibitor, average of 3 experiments, each in duplicate
T3 construct: For all of them, we expressed and purified the catalytic domain separately; His-tag; made in house; host or cells: Escherichia coli
T3 sequence (O96017 220-486 limits assumed): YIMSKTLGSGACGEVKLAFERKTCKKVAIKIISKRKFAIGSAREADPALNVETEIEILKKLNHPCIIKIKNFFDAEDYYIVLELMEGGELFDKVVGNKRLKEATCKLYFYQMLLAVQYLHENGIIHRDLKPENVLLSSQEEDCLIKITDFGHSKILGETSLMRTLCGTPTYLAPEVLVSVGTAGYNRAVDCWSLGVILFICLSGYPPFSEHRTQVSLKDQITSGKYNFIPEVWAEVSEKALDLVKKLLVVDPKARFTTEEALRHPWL

DMPK Catalytic Domain = target: T4, DMPK Catalytic Domain (Homo sapiens, UniProt Q09013); conditions: 2 µM protein, 10 µM inhibitor, average of 3 experiments, each in duplicate
T4 construct: For all of them, we expressed and purified the catalytic domain separately; His-tag; made in house; host or cells: Escherichia coli
T4 sequence (Q09013 71-339 limits assumed): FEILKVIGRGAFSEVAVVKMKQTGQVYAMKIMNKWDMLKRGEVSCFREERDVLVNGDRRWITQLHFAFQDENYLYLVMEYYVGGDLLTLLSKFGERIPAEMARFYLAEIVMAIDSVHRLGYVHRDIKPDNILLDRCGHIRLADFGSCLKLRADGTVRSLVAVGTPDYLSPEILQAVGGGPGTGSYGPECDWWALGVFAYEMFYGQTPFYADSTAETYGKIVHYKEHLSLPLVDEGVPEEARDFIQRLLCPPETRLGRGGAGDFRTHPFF

STK3 Catalytic Domain = target: T5, STK3 Catalytic Domain (Homo sapiens, UniProt Q13188); conditions: 2 µM protein, 10 µM inhibitor, average of 3 experiments, each in duplicate
T5 construct: For all of them, we expressed and purified the catalytic domain separately; His-tag; made in house; host or cells: Escherichia coli
T5 sequence (Q13188 27-278 limits assumed): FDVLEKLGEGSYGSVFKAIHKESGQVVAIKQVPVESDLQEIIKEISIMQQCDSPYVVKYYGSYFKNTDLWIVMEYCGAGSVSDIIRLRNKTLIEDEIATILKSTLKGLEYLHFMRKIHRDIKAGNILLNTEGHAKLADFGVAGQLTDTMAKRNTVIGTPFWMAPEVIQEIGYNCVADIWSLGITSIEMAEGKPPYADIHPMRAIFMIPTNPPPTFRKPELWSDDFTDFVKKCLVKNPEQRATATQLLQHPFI

FES Catalytic Domain+SH2 = target: T6, FES Catalytic Domain+SH2 (Homo sapiens, UniProt P07332); conditions: 2 µM protein, 10 µM inhibitor, average of 3 experiments, each in duplicate
T6 construct: for 8, we also made a longer version containing one or more additional domains; His-tag; made in house; host or cells: Escherichia coli
T6 sequence (P07332 448-822 limits assumed): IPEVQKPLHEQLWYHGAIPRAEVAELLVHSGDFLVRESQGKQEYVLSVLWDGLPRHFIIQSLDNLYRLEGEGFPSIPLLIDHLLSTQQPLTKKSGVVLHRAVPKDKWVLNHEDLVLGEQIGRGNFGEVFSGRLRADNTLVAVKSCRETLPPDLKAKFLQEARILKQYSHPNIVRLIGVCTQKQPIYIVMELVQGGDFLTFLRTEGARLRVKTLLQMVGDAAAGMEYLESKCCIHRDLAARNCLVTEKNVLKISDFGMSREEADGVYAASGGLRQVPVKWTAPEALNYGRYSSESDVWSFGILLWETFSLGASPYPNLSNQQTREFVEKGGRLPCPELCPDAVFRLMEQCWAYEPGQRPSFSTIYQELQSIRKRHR

PAK7 Catalytic Domain = target: T7, PAK7 Catalytic Domain (Homo sapiens, UniProt Q9P286); conditions: 2 µM protein, 10 µM inhibitor, average of 3 experiments, each in duplicate
T7 construct: For all of them, we expressed and purified the catalytic domain separately; His-tag; made in house; host or cells: Escherichia coli
T7 sequence (Q9P286 449-700 limits assumed): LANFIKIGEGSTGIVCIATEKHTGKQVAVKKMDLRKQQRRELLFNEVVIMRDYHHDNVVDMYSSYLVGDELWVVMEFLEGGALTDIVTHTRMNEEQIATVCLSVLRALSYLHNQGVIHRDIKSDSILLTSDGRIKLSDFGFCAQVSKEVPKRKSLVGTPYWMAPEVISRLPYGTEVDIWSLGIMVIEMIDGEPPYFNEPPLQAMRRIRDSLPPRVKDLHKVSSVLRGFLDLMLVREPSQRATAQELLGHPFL

AKT3 Catalytic Domain = target: T8, AKT3 Catalytic Domain (Homo sapiens, UniProt Q9Y243); conditions: 2 µM protein, 10 µM inhibitor, average of 3 experiments, each in duplicate
T8 construct: AKT3 (Q9Y243); CD; His-tag; made in house; host or cells: Escherichia coli
T8 sequence (Q9Y243 122-479): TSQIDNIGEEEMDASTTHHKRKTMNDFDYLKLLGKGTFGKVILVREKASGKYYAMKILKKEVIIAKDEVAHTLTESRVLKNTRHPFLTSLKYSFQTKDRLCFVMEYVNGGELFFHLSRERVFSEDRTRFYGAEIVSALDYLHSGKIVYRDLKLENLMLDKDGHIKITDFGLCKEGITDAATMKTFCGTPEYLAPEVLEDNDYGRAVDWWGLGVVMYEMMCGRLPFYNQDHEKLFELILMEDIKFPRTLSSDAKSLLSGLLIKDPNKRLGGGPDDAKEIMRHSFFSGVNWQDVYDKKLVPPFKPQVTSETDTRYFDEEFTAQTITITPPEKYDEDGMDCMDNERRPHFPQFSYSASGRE

[1] = target: SRC Catalytic Domain+SH2+SH3 (Homo sapiens, UniProt P12931); conditions: 2 µM protein, 10 µM inhibitor, average of 3 experiments, each in duplicate
Chain of SRC Catalytic Domain+SH2+SH3 (P12931 84-523 limits assumed): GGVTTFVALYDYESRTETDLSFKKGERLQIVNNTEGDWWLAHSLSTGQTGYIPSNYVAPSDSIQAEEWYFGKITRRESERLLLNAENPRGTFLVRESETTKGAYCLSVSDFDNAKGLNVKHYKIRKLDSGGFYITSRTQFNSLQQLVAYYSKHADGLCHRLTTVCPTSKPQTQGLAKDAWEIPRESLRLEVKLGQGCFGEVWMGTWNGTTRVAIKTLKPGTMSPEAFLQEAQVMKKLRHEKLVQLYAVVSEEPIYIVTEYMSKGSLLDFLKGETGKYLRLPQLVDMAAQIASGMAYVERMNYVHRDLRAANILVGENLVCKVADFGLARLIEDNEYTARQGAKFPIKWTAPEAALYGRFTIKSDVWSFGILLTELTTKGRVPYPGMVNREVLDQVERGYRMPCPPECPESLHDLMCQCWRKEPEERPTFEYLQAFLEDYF

FES Catalytic Domain = target: T9, FES Catalytic Domain (Homo sapiens, UniProt P07332); conditions: 2 µM protein, 10 µM inhibitor, average of 3 experiments, each in duplicate
T9 construct: For all of them, we expressed and purified the catalytic domain separately; His-tag; made in house; host or cells: Escherichia coli
T9 sequence (P07332 561-822 limits assumed): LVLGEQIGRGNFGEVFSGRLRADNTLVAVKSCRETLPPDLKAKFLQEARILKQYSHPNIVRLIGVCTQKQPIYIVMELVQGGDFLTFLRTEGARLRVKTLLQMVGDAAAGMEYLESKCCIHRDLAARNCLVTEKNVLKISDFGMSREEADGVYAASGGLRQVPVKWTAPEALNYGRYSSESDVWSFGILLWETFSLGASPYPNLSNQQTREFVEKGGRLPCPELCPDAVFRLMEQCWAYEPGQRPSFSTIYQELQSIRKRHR

[2] = target: T10, PAK4 Catalytic Domain+PBD (Homo sapiens, UniProt O96013); conditions: 2 µM protein, 10 µM inhibitor, average of 3 experiments, each in duplicate
T10 construct: for 8, we also made a longer version containing one or more additional domains; His-tag; made in house; host or cells: Escherichia coli
T10 sequence (O96013 whole entry, the tested form may be a part): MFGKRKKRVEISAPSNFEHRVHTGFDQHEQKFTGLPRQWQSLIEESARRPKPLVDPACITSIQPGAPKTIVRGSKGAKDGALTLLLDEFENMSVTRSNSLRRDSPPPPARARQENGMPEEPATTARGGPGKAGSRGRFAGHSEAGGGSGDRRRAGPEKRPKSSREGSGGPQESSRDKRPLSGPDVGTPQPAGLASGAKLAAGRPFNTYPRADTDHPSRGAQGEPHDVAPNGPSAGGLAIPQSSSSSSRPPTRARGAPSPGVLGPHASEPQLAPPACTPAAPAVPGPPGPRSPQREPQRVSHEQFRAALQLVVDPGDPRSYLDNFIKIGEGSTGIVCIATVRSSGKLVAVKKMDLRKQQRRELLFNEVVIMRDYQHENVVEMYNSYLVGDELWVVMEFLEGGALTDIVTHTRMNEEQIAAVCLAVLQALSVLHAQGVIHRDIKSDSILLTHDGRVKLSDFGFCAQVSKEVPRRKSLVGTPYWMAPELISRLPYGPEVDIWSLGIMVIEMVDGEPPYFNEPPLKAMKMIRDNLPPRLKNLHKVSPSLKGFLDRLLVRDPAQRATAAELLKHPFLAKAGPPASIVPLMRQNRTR

[3] = target: T11, STK3 Catalytic domain+SARAH (Homo sapiens, UniProt Q13188); conditions: 2 µM protein, 10 µM inhibitor, average of 3 experiments, each in duplicate
T11 construct: for 8, we also made a longer version containing one or more additional domains; His-tag; made in house; host or cells: Escherichia coli
T11 sequence (Q13188 1-491): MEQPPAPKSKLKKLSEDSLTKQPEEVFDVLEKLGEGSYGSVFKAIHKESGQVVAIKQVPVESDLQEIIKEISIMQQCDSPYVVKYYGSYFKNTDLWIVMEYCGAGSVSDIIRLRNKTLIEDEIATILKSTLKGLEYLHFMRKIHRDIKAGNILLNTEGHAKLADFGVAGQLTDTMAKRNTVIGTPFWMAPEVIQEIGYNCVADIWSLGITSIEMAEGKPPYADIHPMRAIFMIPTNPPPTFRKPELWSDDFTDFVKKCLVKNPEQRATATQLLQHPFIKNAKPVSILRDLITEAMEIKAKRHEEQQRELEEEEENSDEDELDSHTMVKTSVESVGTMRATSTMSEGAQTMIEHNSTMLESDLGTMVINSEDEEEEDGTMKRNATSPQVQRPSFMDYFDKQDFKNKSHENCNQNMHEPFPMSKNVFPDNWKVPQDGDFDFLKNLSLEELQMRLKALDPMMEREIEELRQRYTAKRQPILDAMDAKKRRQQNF

CDK2 + Cyclin A = target: T12, CDK2 + Cyclin A (Homo sapiens, UniProt P24941); conditions: CDK2 + Cyclin A; 2 µM protein, 10 µM inhibitor; average of 3 experiments, each in duplicate
T12 construct: CDK2 (P24941); 1–299; His-tag; made in house; host or cells: Escherichia coli

| Compound | Melting temperature (Tm) shift (PAK4 Catalytic Domain) [degrees Celcius] | Melting temperature (Tm) shift (FAK2 Catalytic Domain) [degrees Celcius] | Melting temperature (Tm) shift (SRC Catalytic Domain) [degrees Celcius] | Melting temperature (Tm) shift (CHK2 Catalytic Domain) [degrees Celcius] | Melting temperature (Tm) shift (DMPK Catalytic Domain) [degrees Celcius] | Melting temperature (Tm) shift (STK3 Catalytic Domain) [degrees Celcius] | Melting temperature (Tm) shift (FES Catalytic Domain+SH2) [degrees Celcius] | Melting temperature (Tm) shift (PAK7 Catalytic Domain) [degrees Celcius] | Melting temperature (Tm) shift [1] [degrees Celcius] | Melting temperature (Tm) shift (FES Catalytic Domain) [degrees Celcius] | Melting temperature (Tm) shift [2] [degrees Celcius] | Melting temperature (Tm) shift [3] [degrees Celcius] | Melting temperature (Tm) shift (CDK2 + Cyclin A) [degrees Celcius] | Melting temperature (Tm) shift (AKT3 Catalytic Domain) [degrees Celcius] |
| --- | --- | --- | --- | --- | --- | --- | --- | --- | --- | --- | --- | --- | --- | --- |
| CN[C@@H]1C[C@H]2O[C@@](C)([C@@H]1OC)n1c3ccccc3c3c4c(c5c6ccccc6n2c5c31)C(=O)N[C@@H]4O [UCN-01] | 6.2 | 5.9 | 0.4 | 1.7 | 5.9 | 7.6 | 1.3 | 7.4 | 1.2 | 5.2 | 6.8 | 12.7 | – | 3.2 |
| Nc1ncnc2c1c(-c1ccc(Oc3ccccc3)cc1)cn2C1CCCC1 [Lck Inhibitor] | – | – | 9.4 | 2.2 | – | 1.3 | 0.3 | 0.0 | 6.4 | 0.7 | – | 0.2 | – | – |
| COc1cc2ncnc(Nc3ccc(Cl)cc3Cl)c2cc1OC [Ste11 MAPKKK Activation Inhibitor] | 0.0 | 0.4 | 0.5 | 10.6 | 0.4 | 0.3 | 0.1 | 0.0 | 0.7 | 0.1 | 0.1 | 0.6 | 0.1 | – |
| Cc1nc(N)sc1-c1ccnc(Nc2cccc([N+](=O)[O-])c2)n1 [Cdk2/9 Inhibitor] | 0.7 | 0.5 | 0.5 | 1.8 | 0.4 | 0.7 | 0.1 | 0.3 | 0.6 | 0.3 | 2.0 | 0.4 | – | – |
| CCCC(=O)Oc1ccc2[nH]c(C(=O)c3cc4ccccc4[nH]3)cc2c1 | 0.0 | 0.3 | 1.1 | 1.4 | – | 0.5 | 0.1 | 0.1 | 0.6 | 0.3 | – | 1.2 | – | – |

Now from value to compound, other results behind:

| Melting temperature (Tm) shift (PAK4 Catalytic Domain) [degrees Celcius] | Melting temperature (Tm) shift (FAK2 Catalytic Domain) [degrees Celcius] | Melting temperature (Tm) shift (SRC Catalytic Domain) [degrees Celcius] | Melting temperature (Tm) shift (CHK2 Catalytic Domain) [degrees Celcius] | Melting temperature (Tm) shift (DMPK Catalytic Domain) [degrees Celcius] | Melting temperature (Tm) shift (STK3 Catalytic Domain) [degrees Celcius] | Melting temperature (Tm) shift (FES Catalytic Domain+SH2) [degrees Celcius] | Melting temperature (Tm) shift (PAK7 Catalytic Domain) [degrees Celcius] | Melting temperature (Tm) shift [1] [degrees Celcius] | Melting temperature (Tm) shift (FES Catalytic Domain) [degrees Celcius] | Melting temperature (Tm) shift [2] [degrees Celcius] | Melting temperature (Tm) shift [3] [degrees Celcius] | Melting temperature (Tm) shift (CDK2 + Cyclin A) [degrees Celcius] | Compound | Melting temperature (Tm) shift (AKT3 Catalytic Domain) [degrees Celcius] |
| --- | --- | --- | --- | --- | --- | --- | --- | --- | --- | --- | --- | --- | --- | --- |
| 0.0 | 0.1 | 0.0 | – | – | 0.1 | – | 0.0 | 0.0 | – | 0.3 | 0.4 | – | CN1C(=O)C(=C2Nc3ccccc3C2=NO)c2ccc(Br)cc21 [GSK-3 Inhibitor IX, Control, MeBIO] | – |
| 1.5 | 0.5 | 0.2 | 6.6 | 4.8 | 1.8 | 0.8 | 0.9 | 0.0 | 1.0 | 1.6 | 2.9 | – | CS(=O)(=O)O.Cn1cc(C2=C(c3cn(CCCSC(=N)N)c4ccccc34)C(=O)NC2=O)c2ccccc21 [Ro-31-8220] | 1.6 |
| – | 1.0 | 5.9 | 7.6 | – | 1.7 | 1.5 | – | 3.9 | 1.6 | – | 0.0 | – | COc1cc2nccc(Oc3ccc(NC(=S)NC(=O)c4ccccc4C)cc3)c2cc1OC [PDGF RTK Inhibitor] | – |
